Columns and labels:
Type in all cases: cell-based
MOLM-13 = test: Proliferation inhibition (CellTiter-Glo) in MOLM-13 cells; conditions: Homo sapiens, 96 h, MOLM-13 AML cells, heterozygous FLT3-ITD, IC50 (4 days)
Description: (§1) The Proliferation Inhibitory Effect was Investigated in Human AML Cell Lines MOLM-13 (AddexBio: C0003003) [REF: Pubmed: 9305600] and MV-4-11 (ATCC: CRL-9591) [REF PMID: 3496132], and CML cell line […] (ATCC: CRL-3343) [REF PMID: 163658]. Molm-13 is heterozygous for FLT3-ITD mutation, while MV4-11 is homozygous for FLT3-ITD [PMID: 12529668]. […] Cells were maintained in RPMI-1640 medium (ThermoFisher catalog no. 61870036) supplemented with 10% of Heat Inactivated FBS (ThermoFisher catalog no.A31605) and 1% Pen-Strep (Thermofisher catalog no. 10378016) and cultured at 37° C. in a humidified incubator with 5% CO2. Cell lines were […], and the cells were maintained in a range 70%-80% confluency.
(§2) ATP is present in all metabolically active cells and is considered as a marker for cell viability and proliferation. Metabolic cell activity was determined using the CellTiter-Glo kit (Promega catalog no. G7572), an ATP monitoring system based on the production of luminescence by the reaction of ATP with added UltraGlo® recombinant luciferase (Kawano et al., 2016, PLOS One, 8; 11(7):e0158888), according to the supplier's experimental recommendations. The assay was based on a 96 well plate format.
(§3) Test compounds were dissolved at 10 mM in DMSO (Sigma catalog no. D8418; purity 299.9%) and stored at −20° C. Eight concentrations of test compound were assessed in duplicate in an individual test occasion in parallel in the selected cell lines. Gilteratinib and FF-10101 were used as reference compounds and tested in duplicate at eight concentrations. 100% of proliferation is represented by the untreated cells (0.2% DMSO).
(§4) On the day of the experiment (TO), cells were quantified with the cell viability analyser NucleoCounter (Chemometec NC-200) and diluted with fresh medium to obtain the cell density of about 10,000 cells per 200 μL medium. 200 μL of cell suspension were added into wells in the 96 well plate.
(§5) After 2 hours from seeding cells, compounds were added using a D300e compound dispenser (Life Sciences Tecan D300) at desired concentrations with shaking between each compound dispensed. Cell plates containing 200 μL/well suspension were incubated at 37° C. in a humidified incubator with […].
(§6) […] Contents were mixed for 5 min on an orbital shaker to induce cell lysis, and then incubated at room temperature for an additional 10 min in the dark to stabilize the luminescent signal. Luminescence was read by using a GloMax GM300 plate reader (Promega) using the luminescence for 96 well plate standard protocol.
(§7) Results were analysed by GraphPad (Prism) and IC50 values were calculated by non-linear regression using four parameter-logistic equation.

K-562 = test: Proliferation inhibition (CellTiter-Glo) in K-562 cells; conditions: Homo sapiens, K562, 96 h, K-562 CML cells, no FLT3 mutations, IC50 (4 days)
Description: as §1, §2, §3, §4, §5, §6, §7

MV-4-11 = test: Proliferation inhibition (CellTiter-Glo) in MV-4-11 cells; conditions: Homo sapiens, MV4-11, 96 h, MV-4-11 AML cells, homozygous FLT3-ITD, IC50 (4 days)
Description: as §1, §2, §3, §4, §5, §6, §7

SMILES | IC50 (MOLM-13) | IC50 (K-562) | IC50 (MV-4-11)
C#CC(=O)N(C)CCCC(=O)NCCc1cc(Nc2nc(NC3CCOCC3)c(CC)nc2C(N)=O)cc(OC)c1 [Compound 32, 6-ethyl-3-[3-methoxy-5-[2-[4-[methyl(prop-2-ynoyl)amino]butanoylamino]ethyl]anilino]-5-(tetrahydropyran-4-ylamino)pyrazine-2-carboxamide] | 1 to 10 nM | > 500 nM | < 1 nM
CCc1nc(C(N)=O)c(Nc2cccc(OC(C)CCNC(=O)[C@H](C)N(C)C(=O)/C=C/CN(C)C)c2)nc1NC1CCOCC1 (stereo partly drawn) [Compound 115, 3-[3-[3-[[(2S)-2-[[(E)-4-(dimethylamino)but-2-enoyl]-methyl-amino]propanoyl]amino]-1-methyl-propoxy]anilino]-6-ethyl-5-(tetrahydropyran-4-ylamino)pyrazine-2-carboxamide] | 1 to 10 nM | > 500 nM | < 1 nM
C=CS(=O)(=O)N(C)[C@@H](C)C(=O)NCCNc1cc(Nc2nc(NC3CCOCC3)c(CC)nc2C(N)=O)ccn1 [Compound 41, 6-ethyl-3-[[2-[2-[[(2S)-2-[methyl(vinylsulfonyl)amino]propanoyl]amino]ethylamino]-4-pyridyl]amino]-5-(tetrahydropyran-4-ylamino)pyrazine-2-carboxamide] | 10 to 100 nM | > 500 nM | 10 to 100 nM
C=CC(=O)N(C)[C@@H](C)C(=O)NCCOc1cccc(Nc2nc(NC3CCOCC3)c(CC)nc2C(N)=O)c1 [Compound 38, 6-ethyl-3-[3-[2-[[(2S)-2-[methyl(prop-2-enoyl)amino]propanoyl]amino]ethoxy]anilino]-5-(tetrahydropyran-4-ylamino)pyrazine-2-carboxamide] | 10 to 100 nM | > 500 nM | 1 to 10 nM
C=CC(=O)NCCCCOc1cccc(Nc2nc(NC3CCOCC3)c(CC)nc2C(N)=O)c1 [Compound 1, 3-((3-(4-Acrylamidobutoxy)phenyl)amino)-6-ethyl-5-((tetrahydro-2H-pyran-4-yl)amino)pyrazine-2-carboxamide] | 100 to 500 nM | > 500 nM | 10 to 100 nM
CCc1cnc(Nc2cccc(OCCCNC(=O)[C@H](C)N(C)C(=O)/C=C/CN(C)C)c2)c(C(N)=O)n1 [Compound 121, (S,E)-3-((3-(3-(2-(4-(dimethylamino)-N-methylbut-2-enamido)propanamido)propoxy)phenyl)amino)-6-ethylpyrazine-2-carboxamide] | 100 to 500 nM | > 500 nM | 10 to 100 nM
C=CC(=O)N(C)CCC(=O)NCCc1cc(Nc2nc(NC3CCOCC3)c(CC)nc2C(N)=O)cc(OC)c1 [Compound 34, 6-Ethyl-3-((3-methoxy-5-(2-(3-(N-methylacrylamido)propanamido)ethyl)phenyl)amino)-5-((tetrahydro-2H-pyran-4-yl)amino)pyrazine-2-carboxamide] | 10 to 100 nM | > 500 nM | 1 to 10 nM
CCc1nc(C(N)=O)c(Nc2cccc(OCCCNC(=O)[C@H](C)N(C)C(=O)/C=C/CN(C)C)c2)nc1NC(CC)CC [Compound 122, (S,E)-3-((3-(3-(2-(4-(dimethylamino)-N-methylbut-2-enamido)propanamido)propoxy)phenyl)amino)-6-ethyl-5-(pentan-3-ylamino)pyrazine-2-carboxamide] | < 1 nM | > 500 nM | < 1 nM
C=CC(=O)N(C)[C@@H](C)C(=O)NCC#Cc1cccc(Nc2nc(NC3CCOCC3)c(CC)nc2C(N)=O)c1 [Compound 17, (S)-6-Ethyl-3-((3-(3-(2-(N-methylacrylamido)propanamido)prop-1-yn-1-yl)phenyl)amino)-5-((tetrahydro-2H-pyran-4-yl)amino)pyrazine-2-carboxamide] | 1 to 10 nM | > 500 nM | < 1 nM
CCc1nc(C(N)=O)c(Nc2cccc(OCCCNC(=O)[C@H](C)N(C)C(=O)/C=C/CN3CC(F)C3)c2)nc1NC1CCOCC1 [Compound 139, (S,E)-6-Ethyl-3-((3-(3-(2-(4-(3-fluoroazetidin-1-yl)-N-methylbut-2-enamido)propanamido)propoxy)phenyl)amino)-5-((tetrahydro-2H-pyran-4-yl)amino)pyrazine-2-carboxamide] | 1 to 10 nM | > 500 nM | < 1 nM
CCc1nc(C(N)=O)c(Nc2cccc(CCNC(=O)[C@H](C)N(C)C(=O)/C=C/CNC)c2)nc1N(C)C(C)C [Compound 307, (S,E)-6-ethyl-5-(isopropyl(methyl)amino)-3-((3-(2-(2-(N-methyl-4-(methylamino)but-2-enamido)propanamido)ethyl)phenyl)amino)pyrazine-2-carboxamide] |  | > 500 nM | 
CCc1nc(C(=O)NC)c(Nc2cccc(CCNC(=O)C(C)N(C)C(=O)/C=C/CN(C)C)c2)nc1NC1CCOCC1 (stereo not drawn) [Compound 152, (E)-3-((3-(2-(2-(4-(dimethylamino)-N-methylbut-2-enamido)propanamido)ethyl)phenyl)amino)-6-ethyl-N-methyl-5-((tetrahydro-2H-pyran-4-yl)amino)pyrazine-2-carboxamide] | > 500 nM | > 500 nM | > 500 nM
CC#CC(=O)NCCCNc1cc(Nc2nc(NC3CCOCC3)c(CC)nc2C(N)=O)ccn1 [Compound 26, 3-((2-((3-(But-2-ynamido)propyl)amino)pyridin-4-yl)amino)-6-ethyl-5-((tetrahydro-2H-pyran-4-yl)amino)pyrazine-2-carboxamide] | 100 to 500 nM | > 500 nM | 10 to 100 nM
C=CS(=O)(=O)N(C)[C@@H](C)C(=O)NCC#Cc1cccc(Nc2nc(NC3CCOCC3)c(CC)nc2C(N)=O)c1 [Compound 19, (S)-6-Ethyl-3-((3-(3-(2-(N-methylvinylsulfonamido)propanamido)prop-1-yn-1-yl)phenyl)amino)-5-((tetrahydro-2H-pyran-4-yl)amino)pyrazine-2-carboxamide] | > 500 nM | > 500 nM | > 500 nM
CCc1nc(C(N)=O)c(Nc2cccc(OCCCNC(=O)[C@H](C)N(C)C(=O)/C=C/CN(C)C)c2)nc1C [Compound 126, (S,E)-3-((3-(3-(2-(4-(dimethylamino)-N-methylbut-2-enamido)propanamido)propoxy)phenyl)amino)-6-ethyl-5-methylpyrazine-2-carboxamide] | 10 to 100 nM | > 500 nM | 1 to 10 nM
CCc1nc(C(N)=O)c(Nc2cccc(OCCCNC(=O)[C@H](C)N(C)C(=O)/C=C/CN(C)C)c2)nc1N(C)C(C)C [Compound 145, (S,E)-3-((3-(3-(2-(4-(dimethylamino)-N-methylbut-2-enamido)propanamido)propoxy)phenyl)amino)-6-ethyl-5-(isopropyl(methyl)amino)pyrazine-2-carboxamide] | 1 to 10 nM | > 500 nM | < 1 nM
CC#CC(=O)NCCC#Cc1cccc(Nc2nc(NC3CCOCC3)c(CC)nc2C(N)=O)c1 [Compound 16, 3-((3-(4-(But-2-ynamido)but-1-yn-1-yl)phenyl)amino)-6-ethyl-5-((tetrahydro-2H-pyran-4-yl)amino)pyrazine-2-carboxamide] | 100 to 500 nM | > 500 nM | 100 to 500 nM
Cc1cc(C(N)=O)c(Nc2cncc(CCNC(=O)[C@H](C)N(C)C(=O)/C=C/CN(C)C)c2)nc1C1CC1 [Compound 323, (S,E)-6-cyclopropyl-2-((5-(2-(2-(4-(dimethylamino)-N-methylbut-2 enamido)propanamido)ethyl)pyridin-3-yl)amino)-5-methylnicotinamide] |  | > 500 nM | 
CCc1nc(C(N)=O)c(Nc2cncc(CCNC(=O)[C@H](C)N(C)C(=O)/C=C/CN(C)C)c2)nc1C1CC1 [Compound 306, (S,E)-5-cyclopropyl-3-((5-(2-(2-(4-(dimethylamino)-N-methylbut-2-enamido)propanamido)ethyl)pyridin-3-yl)amino)-6-ethylpyrazine-2-carboxamide] |  | > 500 nM | 

Reference: patent publication US20250136558A1, “PYRAZINE COMPOUNDS AS IRREVERSIBLE INHIBITORS OF FLT3” (BIOMEA FUSION, INC., priority 2021, published 2025)
